Measurements: patent US9597332B2, “Sulfide alkyl compounds for HBV treatment” (NOVIRA THERAPEUTICS, INC., priority 2014, dated 2017)

System: HBV replication in HepG2-2.2.15 cells
Experiment: Inhibition of HBV replication dot-blot assay
Format: cell-based
Details: Hepatitis B virus, 144 h, 6 days, reduction in HBV DNA levels
Description: Compounds active in the HBV assembly assay are tested for their activity and toxicity in cellular assay. In the first anti-viral assay, the ability of compounds to inhibit HBV replication in an HBV-producing hepatoma cell line using the dot-blot method is evaluated.
(§1) Briefly, confluent monolayers of HepG2-2.2.15 cells are incubated with complete medium containing various concentrations of a test compound. Three days later, the culture medium is replaced with fresh medium containing the appropriately diluted test compound. Six days following the initial administration of the test compound, the cell culture supernatant is collected, and cell lysis is performed. The samples are applied onto Nylos membranes and DNA is immobilized to the membrane by UV cross-linking. After pre-hybridization, the HBV probe is added and the hybridization is performed overnight. The membranes are exposed to the KODAK films; antiviral activity is calculated from the reduction in HBV DNA levels (EC50). The EC50 for antiviral activity is calculated from the dose response curves of active compounds. Assay performance over time is monitored by the use of the standard positive control compounds ETV, BAY 41-4109, and HAP-1.
Selected compounds are tested for their activity and toxicity in cellular assay. In the first anti-viral assay, the ability of compounds to inhibit HBV replication in an HBV-producing hepatoma cell line using the dot-blot method is evaluated.
as §1, with “Confluent monolayers” for “Briefly, confluent monolayers”, “lysis was” for “lysis is”

## O=C(Nc1cc(F)c(F)c(F)c1)c1ccc(F)c(S[C@H]2CCCC[C@H](O)C2)c1 (racemic) [Example 14B, (±)-4-Fluoro-3-(((1R,3R)-3-hydroxycycloheptyl)thio)-N-(3,4,5-trifluorophenyl)benzamide]
  EC50: < 10 µM

## O=C(Nc1ccc(F)c(Cl)c1)c1ccc(F)c(SC2CCC[C@H](O)C2)c1 (mixture of isomers) [Example 21, (±)-N-(3-Chloro-4-fluorophenyl)-4-fluoro-3-(((1R,3R)-3-hydroxycyclohexyl)thio)benzamide]
  EC50: < 10 µM

## O=C(Nc1cc(F)c(F)c(F)c1)c1ccc(F)c(S[C@H]2CCCC[C@@H](O)C2)c1 (racemic) [Example 14A, (±)-4-Fluoro-3-(((1S,3R)-3-hydroxycycloheptyl)thio)-N-(3,4,5-trifluorophenyl)benzamide]
  EC50: < 10 µM

## O=C(Nc1ccc(F)c(Cl)c1)c1ccc(F)c(S[C@H]2CC[C@H](O)C2)c1 (racemic) [Example 25, (±)-N-(3-Chloro-4-fluorophenyl)-4-fluoro-3-(((1S,3S)-3-hydroxycyclopentyl)thio)benzamide]
  EC50: < 10 µM
